Here are results for 66 molecules from patent publication US11319304B2, “Pyridine quinoline compounds as MGLUR4 allosteric potentiators, compositions, and methods of treating neurological dysfunction” (Vanderbilt University, priority 2017, dated 2022).

Usually EC50 stands for the concentration giving half of the maximal effect.

The experiment deals with mGluR4 (Homo sapiens, UniProt Q14833). The experiment is described as follows: mGlu4 PAM potentiation assay, CHO cells transfected with human mGluR4, Ca2+-sensitive dye fluorescence. The class given is cell-based. Here is the method:
The disclosed compounds and compositions can be evaluated for their ability to act as a potentiator of metabotropic glutamate receptor activity, in particular mGluR4 activity, by any suitable known methodology known in the art. For example, Chinese Hamster Ovary (CHO) cells transfected with human mGluR4 or HEK cells co-transfected with rat mGluR4 and the G-protein regulated Inwardly Rectifying Potassium channel (GIRK) were plated in clear bottom, assay plates for assay in a Hamamatsu FDSS Fluorometric Plate Reader. The cells were loaded with either a Ca2+-sensitive fluorescent dye or the thallium responsive dye and the plates were washed and placed into a suitable kinetic plate reader. For human mGluR4 assays, a fluorescence baseline was established for 3-5 seconds, the disclosed compounds were then added to the cells, and the response in cells was measured. Approximately two and a half minutes later, a concentration of mGluR4 orthosteric agonist (e.g. glutamate, L-AP4, or L-SOP) eliciting approximately 20% (EC20) of the maximal agonist response was added to the cells, and the response was measured. Two minutes later, a concentration of mGluR4 agonist (e.g. glutamate, L-AP4, or L-SOP) eliciting 80% (EC80) of the maximal agonist response was added to the cells, and the response was measured. For rat mGluR4/GIRK experiments, a baseline was established for approximately five seconds, disclosed compounds were added, and either an EC20 or EC80 concentration of agonist was added approximately two and one half minutes later. Potentiation or antagonism of the agonist response of mGluR4 by the disclosed compounds was observed as an increase or decrease in response to the EC20 concentration of agonist in the presence of compound compared to the response to agonist in the absence of compound. Similarly, potentiation or antagonism of the agonist response of mGluR4 by the disclosed Compounds was observed as an increase or decrease in response to the EC80 concentration of agonist in the presence of compound compared to the response to agonist in the absence of compound.
The above described assay operated in two modes. In the first mode, a range of concentrations of the disclosed compounds are added to cells, followed by a single fixed concentration of agonist. If the compound acts as a potentiatior, an EC50 value for potentiation and a maximum extent of potentiation by the compound at this concentration of agonist is determined by non-linear curve fitting. If the compound acts as an antagonist, an IC50 value is determined by non-linear curve fitting. In the second mode, several fixed concentrations of the disclosed compounds are added to various wells on a plate, followed by a range in concentrations of agonist for each concentration of disclosed compound. The EC50 values for the agonist at each concentration of compound are determined by non-linear curve fitting. A decrease in the EC50 value of the agonist with increasing concentrations of the sample compound (a leftward shift of the agonist concentration-response curve) is an indication of the degree of mGluR4 potentiation at a given concentration of the sample compound. A decrease in the maximal response of the agonist with increasing concentrations of the sample compounds, with or without a rightward shift in agonist potency, is an indication of the degree of antagonism at mGluR4. The second mode also indicates whether the sample compounds also affect the maximum response to mGluR4 to agonists.

mGluR4, sequence (Q14833 33-912 limits assumed): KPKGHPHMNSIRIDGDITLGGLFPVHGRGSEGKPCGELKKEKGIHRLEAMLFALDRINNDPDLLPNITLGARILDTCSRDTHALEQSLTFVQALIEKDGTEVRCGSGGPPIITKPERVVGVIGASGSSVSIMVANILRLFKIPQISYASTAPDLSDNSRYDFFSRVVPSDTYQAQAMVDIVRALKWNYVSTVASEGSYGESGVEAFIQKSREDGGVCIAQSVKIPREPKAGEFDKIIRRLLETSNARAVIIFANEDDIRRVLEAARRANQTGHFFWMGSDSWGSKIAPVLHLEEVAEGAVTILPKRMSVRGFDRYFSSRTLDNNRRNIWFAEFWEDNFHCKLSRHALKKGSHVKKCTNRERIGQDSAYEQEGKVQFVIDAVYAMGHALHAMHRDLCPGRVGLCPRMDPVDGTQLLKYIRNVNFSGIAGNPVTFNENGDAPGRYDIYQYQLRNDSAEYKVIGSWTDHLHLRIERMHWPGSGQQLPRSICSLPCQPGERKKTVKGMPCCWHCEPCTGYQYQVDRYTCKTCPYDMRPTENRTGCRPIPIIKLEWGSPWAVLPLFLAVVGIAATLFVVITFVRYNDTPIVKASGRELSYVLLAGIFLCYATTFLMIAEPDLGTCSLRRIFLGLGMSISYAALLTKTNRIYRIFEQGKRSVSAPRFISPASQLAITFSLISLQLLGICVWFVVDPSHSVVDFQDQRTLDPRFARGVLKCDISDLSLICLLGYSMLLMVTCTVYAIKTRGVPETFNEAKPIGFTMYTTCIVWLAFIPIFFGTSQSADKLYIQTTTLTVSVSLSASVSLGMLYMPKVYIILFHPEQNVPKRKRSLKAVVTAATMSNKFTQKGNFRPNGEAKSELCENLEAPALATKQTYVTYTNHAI

In the case of `CO[C@@H](C)COc1nccc2cc(NC(=O)c3ncccc3O)ccc12` [Compound 53], the EC50 was 0.244 µM.
`Nc1nccnc1C(=O)Nc1ccc2c(OCC3CCOC3)nccc2c1` (stereo not drawn) [Compound 99]: the EC50 stood at 0.0831 µM.
For `CC1(C)CC(Oc2nccc3cc(NC(=O)c4ccc(F)cn4)cc(F)c23)CCO1` (stereo not drawn) [Compound 102] the value was 0.142 µM; for `Nc1cccnc1C(=O)Nc1ccc2c(O[C@H]3CCOC3)nccc2c1` [Compound 10], 0.529 µM.
`CC1(C)CC(Oc2nccc3cc(NC(=O)c4ccccn4)ccc23)CCO1` (stereo not drawn) [Compound 23]: the EC50 stood at 0.146 µM.
For `CC(C)OCCOc1nccc2cc(NC(=O)c3ncccc3N)ccc12` [Compound 27] the value was 0.286 µM.
For the molecule `Nc1cccnc1C(=O)Nc1cc(F)c2c(OCC3CCOCC3)nccc2c1` [Compound 95], the EC50 is 0.106 µM.
In the case of `Nc1cccnc1C(=O)Nc1ccc2c(OC[C@H]3CCOC3)nccc2c1` [Compound 62], the EC50 amounted to 0.063 µM.
For `CC1CC(COc2nccc3cc(NC(=O)c4ncccc4O)ccc23)CCO1` (stereo not drawn) [Compound 39] the value was 0.302 µM; for `Nc1cccnc1C(=O)Nc1ccc2c(OC3CCOCC3)nccc2c1` [Compound 13], 0.29 µM; for `O=C(Nc1cc(F)c2c(OCC3COCCO3)nccc2c1)c1ncccc1F` (stereo not drawn) [Compound 92], 0.152 µM.
For `CC1(C)CC(COc2nccc3cc(NC(=O)c4ccccn4)ccc23)CCO1` (stereo not drawn) [Compound 34] the value was 0.115 µM.
Take `O=C(Nc1ccc2c(OCc3cccnc3)nccc2c1)c1ccc(F)cn1` [Compound 114]: the EC50 came out at 0.228 µM.
For `O=C(Nc1ccc2c(OCC3CCOC3)nccc2c1)c1ccc(O)cn1` (stereo not drawn) [Compound 108] the value was 0.0659 µM; for `O=C(Nc1ccc2c(OCC3COCCO3)ncc(F)c2c1)c1ncccc1O` (stereo not drawn) [Compound 70], 0.71 µM.
For `Nc1cccnc1C(=O)Nc1ccc2c(OC[C@@H]3CCOC3)nccc2c1` [Compound 61] the value was 0.114 µM; for `CO[C@H](C)COc1nccc2cc(NC(=O)c3ncccc3N)ccc12` [Compound 7], 0.152 µM; for `O=C(Nc1ccc2c(OCC3CCOC3)nccc2c1)c1nc(Cl)ccc1F` (stereo not drawn) [Compound 89], 0.822 µM.
On to `O=C(Nc1ccc2c(OC3CCSC3)nccc2c1)c1ccccn1` (stereo not drawn) [Compound 54], for which the EC50 was found to be 0.915 µM.
For `O=C(Nc1ccc2c(OCC3CCOC3)nccc2c1)c1cccc(F)n1` (stereo not drawn) [Compound 87], the EC50 was 0.183 µM.
For the molecule `Nc1cccnc1C(=O)Nc1ccc2c(OCC3CCOCC3)nccc2c1` [Compound 2], the EC50 stood at 0.108 µM.
Consider `COCCOc1nccc2cc(NC(=O)c3ncccc3O)ccc12` [Compound 22], for which the EC50 was found to be 0.502 µM.
Turning to `CO[C@@H](C)COc1nccc2cc(NC(=O)c3ncccc3N)ccc12` [Compound 52], the EC50 is 0.288 µM.
With `Nc1cccnc1C(=O)Nc1ccc2c(Oc3ccncc3)nccc2c1` [Compound 112], the EC50 was 0.394 µM.
On to `O=C(Nc1cc(F)c2c(OCC3CCOCC3)nccc2c1)c1ncccc1F` [Compound 96], for which the EC50 came to 0.102 µM.
For `O=C(Nc1ccc2c(OC3CCOCC3)nccc2c1)c1ccccn1` [Compound 12], the EC50 came out at 0.411 µM.
For the molecule `O=C(Nc1cc(F)c2c(OCC3CCOC3)nccc2c1)c1ccc(F)cn1` (stereo not drawn) [Compound 81], the EC50 was found to be 0.0816 µM.
As to `Cn1ccnc1C(=O)Nc1ccc2c(OCC3CCOC3)nccc2c1` (stereo not drawn) [Compound 59], the EC50 is 0.817 µM.
With `CC1(C)CC(Oc2nccc3cc(NC(=O)c4ccccn4)cc(F)c23)CCO1` (stereo not drawn) [Compound 100], the EC50 is 0.0708 µM.
As to `Nc1cccnc1C(=O)Nc1ccc2c(OCC3COCCO3)ncc(F)c2c1` (stereo not drawn) [Compound 68], the EC50 was 0.0905 µM.
For `Cc1ccoc1C(=O)Nc1ccc2c(OCC3CCOC3)nccc2c1` (stereo not drawn) [Compound 110] the value was 0.707 µM.
In the case of `CC1CC(COc2nccc3cc(NC(=O)c4ncccc4N)ccc23)CCO1` (stereo not drawn) [Compound 38], the EC50 was found to be 0.135 µM.
For `Cc1ccoc1C(=O)Nc1ccc2c(OCC3CCOCC3)nccc2c1` [Compound 111], the EC50 is 0.122 µM.
With `Nc1cccnc1C(=O)Nc1ccc2c(OC3CCS(=O)(=O)C3)nccc2c1` (stereo not drawn) [Compound 55] the figure was 0.634 µM; with `Nc1cccnc1C(=O)Nc1ccc2c(OC3CCOCC3F)nccc2c1` (stereo not drawn) [Compound 41], 0.0836 µM; with `O=C(Nc1ccc2c(OCC3CCOCC3)nccc2c1)c1ccccn1` [Compound 1], 0.056 µM.
As for `CC1CC(Oc2nccc3cc(NC(=O)c4ncccc4N)ccc23)CCO1` (stereo not drawn) [Compound 44], the half-maximal effective concentration (EC50) was determined as 0.804 µM.
As for `O=C(Nc1cc(F)c2c(OCC3CCOC3)nccc2c1)c1ncccc1F` (stereo not drawn) [Compound 80], the EC50 is 0.312 µM.
For `Cc1ccc(C(=O)Nc2ccc3c(OCC4CCOCC4)nccc3c2)nc1` [Compound 104] the value was 0.539 µM.
As to `CC1(COc2nccc3cc(NC(=O)c4ncccc4O)ccc23)CCOCC1` [Compound 33], the EC50 turned out to be 0.269 µM.
For the molecule `CC1(COc2nccc3cc(NC(=O)c4ncccc4N)ccc23)CCOCC1` [Compound 32], the EC50 is 0.325 µM.
With `O=C(Nc1ccc2c(OCC3CCOC3)nccc2c1)c1ccncn1` (stereo not drawn) [Compound 107] the figure was 0.226 µM; with `CC1(C)CC(Nc2nccc3cc(NC(=O)c4ncccc4N)ccc23)CCO1` (stereo not drawn) [Compound 76], 0.616 µM; with `CC1CC(COc2nccc3cc(NC(=O)c4ccccn4)ccc23)CCO1` (stereo not drawn) [Compound 37], 0.0886 µM.
In the case of `CC1(C)CC(Oc2nccc3cc(NC(=O)c4ncc(F)cc4F)cc(F)c23)CCO1` (stereo not drawn) [Compound 103], the EC50 is 0.0766 µM.
As for `O=C(Nc1ccc2c(NC3CC(F)(F)C3)nccc2c1)c1ccccn1` [Compound 75], the EC50 came to 0.715 µM.
For the molecule `O=C(Nc1cc(F)c2c(OCC3CCOCC3)nccc2c1)c1ccc(F)cn1` [Compound 97], the EC50 amounted to 0.0521 µM.
Take `CC1CC(Oc2nccc3cc(NC(=O)c4ccccn4)ccc23)CCO1` (stereo not drawn) [Compound 43]: the EC50 was 0.908 µM.
With `O=C(Nc1cc(F)c2c(OCC3CCOC3)nccc2c1)c1cccc(F)n1` (stereo not drawn) [Compound 82], the EC50 is 0.129 µM.
With `O=C(Nc1ccc2c(OCC3CCOCC3)ncc(F)c2c1)c1ccccn1` [Compound 65], the EC50 is 0.144 µM.
Regarding `O=C(Nc1cc(F)c2c(OCC3CCOC3)nccc2c1)c1ncc(F)cc1F` (stereo not drawn) [Compound 83], the EC50 came to 0.154 µM.
In the case of `Nc1cccnc1C(=O)Nc1cc(F)c2c(OCC3CCOC3)nccc2c1` (stereo not drawn) [Compound 79], the EC50 came out at 0.0482 µM.
Regarding `O=C(Nc1cnc2c(OCC3CCOCC3)nccc2c1)c1ccccn1` [Compound 120], the EC50 stood at 0.333 µM.
As for `O=C(Nc1cc(F)c2c(OCC3CCOCC3)nccc2c1)c1ccccn1` [Compound 94], the EC50 was 0.0377 µM.
With `CC(C)(C)OCCOc1nccc2cc(NC(=O)c3ncccc3O)ccc12` [Compound 30] the figure was 0.493 µM; with `O=C(Nc1ccc2c(OCC3CCOC3)nccc2c1)c1nccs1` (stereo not drawn) [Compound 56], 0.21 µM.
On to `CC1(C)CC(Oc2nccc3cc(NC(=O)c4ncccc4N)ccc23)CCO1` (stereo not drawn) [Compound 24], for which the EC50 is 0.31 µM.
`O=C(Nc1cc(F)c2c(OCC3COCCO3)nccc2c1)c1ccccn1` (stereo not drawn) [Compound 90]: the EC50 was found to be 0.116 µM.
With `Nc1cccnc1C(=O)Nc1ccc2c(OCC3COCCO3)nccc2c1` (stereo not drawn) [Compound 116], the EC50 stood at 0.0637 µM.
For `CC1(COc2nccc3cc(NC(=O)c4ccccn4)ccc23)CCOCC1` [Compound 31], the concentration for a half-maximal effect (EC50) was 0.246 µM.
For `O=C(Nc1ccc2c(OCC3CCOC3)nccc2c1)c1ncccc1F` (stereo not drawn) [Compound 18] the value was 0.262 µM.
On to `Nc1cccnc1C(=O)Nc1ccc2c(OCC3CCCCO3)nccc2c1` (stereo not drawn) [Compound 9], for which the EC50 is 0.242 µM.
As for `Nc1nccnc1C(=O)Nc1ccc2c(OCC3COCCO3)nccc2c1` (stereo not drawn) [Compound 117], the concentration giving a half-maximal response (EC50) came to 0.334 µM.
As to `O=C(Nc1ccc2c(OCC3CCOC3)ncc(F)c2c1)c1ccccn1` (stereo not drawn) [Compound 60], the EC50 is 0.0829 µM.
On to `Nc1cccnc1C(=O)Nc1ccc2c(OCC3CCOC3)nccc2c1` (stereo not drawn) [Compound 16], for which the EC50 came out at 0.0714 µM.
Take `O=C(Nc1ccc2c(OC3CCOCC3F)nccc2c1)c1ncccc1O` (stereo not drawn) [Compound 42]: the EC50 worked out at 0.0922 µM.
